From patent US9493478B2, “Fused ring compound containing furan or salt thereof and pharmaceutical composition comprising same” (YUHAN CORPORATION, priority 2012, dated 2016)

How the values were obtained:
Assay type in all cases: biochemical
PI3Kγ (p120γ)(h) = PI3Kγ (p120γ)(h) (Homo sapiens, UniProt P48736); assay: Assay for phosphatidylinositol 3-kinase gamma (PI3Kγ) activity, PI3K-HTRF kit; details: TR-FRET; enzyme 1.45 μg/ml, 10 μM PIP2, 10 μM ATP
Experimental: (§1) The compounds of the present invention were assayed for the activity of phosphatidylinositol 3-kinase gamma (PI3Kγ) by using a PI3K enzyme-homogenous time resolved fluorescence (PI3K-HTRF) kit, which is available from Upstate (Millipore Co, Billerica, Mass., USA).
(§2) Three kinds of buffer solutions including a phosphorylation reaction solution (a reaction buffer containing 40 mM MgCl2 which is available from Upstate was diluted 4 times and added with 5 mM DTT), a stop solution (STOP A and B solutions which are available from Upstate were mixed at a ratio of 3:1) and a fluorescence detection solution (Detection solutions A, B and C which are available from Upstate were mixed at a ratio of 1:1:18) were prepared. 1 mM of PIP2 substrate (phosphatidylinositol 4,5 biphosphate; Upstate), PI3Kγ (#14-558; Upstate) enzyme and 10 mM ATP (Sigma Aldrich Co., St. Louis, Mo., USA) were prepared. Each of PI3Kγ, 1 mM PIP2 and 10 mM ATP was diluted to 2.9 μg/ml (final reaction concentration: 1.45 μg/ml), 20 μM (final reaction concentration: 10 μM) and 40 μM (final reaction concentration: 10 μM), respectively. The buffer solution used for dilution and preparation process was the phosphorylation reaction solution. The stop solution was used for the termination of phosphorylation reaction, and the fluorescence detection solution was used for the detection of time-resolved fluorescence signals.
(§3) Each test sample was transferred to a 384 well low flange white flat bottom microplate (#3572, Corning Life Sciences, Lowell, Mass., USA) by using a multi 8-channel (Pipetman Neo multi 8×20, Gilson, Middleton, Wis., USA) to make a final phosphorylation reaction volume of 20 μl per each well. For the negative control, 5 μl of 14.4% DMSO and 10 μl of PIP2 substration solution were used, and 5 μl of 14.4% DMSO and 10 μl of PIP2/PI3Kγ mixed solution were used as the positive control. For the test group, 5 μl of a solution prepared by dissolving the compound obtained in Example in DMSO and 10 μl of PIP2/PI3Kγ mixed solution were used. Before the initiation of the phosphorylation reaction, sample compounds were pretreated with the enzyme for approximately 10 minutes, and then the phosphorylation reaction was induced by adding 5 μl of ATP. Since each of the test compound and ATP takes up 25% of the total volume, and PIP2 and PI3Kγ take up 50% of the total volume during the reaction, each solution was concentrated 4 and 2 times, respectively, before mixing the solutions. Subsequently, the test sample was gently shook for 3 minutes and subjected to a phosphorylation reaction for 90 minutes at room temperature, which was then added with 5 μl of the stop solution to terminate the phosphorylation reaction. In order to induce a time-resolved fluorescence reaction, 5 μl of the fluorescence detection solution was added to the sample. The fluorescence detection solution contains biotin-phosphatidylinositol 3,4,5-triphosphate (PIP3), streptavidin-labeled Allopycocyanin (APC) and europium-labeled Pleckstrin homology domain (the PIP3 binds to PH domain), and the time-resolved fluorescence reaction is induced by a series of reaction of PH domain and PIP3, and biotin and streptavidin. The sample was left to stand for 6 hours at room temperature, and the time-resolved fluorescence resonance energy transfer (TR-FRET) rate was measured (emission wavelength: 665 nm, 620 nm, excitation wavelength: 340 nm) by using a Flexstation3 Micro plate reader (Molecular Devices, USA). TR-FRET Rate and TR-Inhibition Rate were calculated based on Equations 1 and 2 below, and the results are expressed in IC50, which is the concentration of a compound that inhibits 50% of PI3Kγ activity in vitro. TR-FRET Rate=(665 nm emission wavelength/620 nm emission wavelength)×10000 <Equation 1> TR-FRET Inhibition Rate=[(TR-FRET Rate of Sample−TR-FRET Rate of Negative Control)/(TR-FRET Rate of Positive Control−TR-FRET Rate of Negative Control)]×100 <Equation 2>

PI3Kδ (p110δ/p85α)(h) = PI3Kδ (p110δ/p85α)(h) (Homo sapiens, UniProt O00329); assay: Assay for phosphatidylinositol 3-kinase delta (PI3Kδ) activity, PI3K-HTRF kit; details: TR-FRET; enzyme 0.725 μg/ml, 10 μM PIP2, 10 μM ATP
Experimental: [The source words this procedure for another target and says it was used here with some conditions changed.] as §1, §2
as §3, with “2> […]” for “2>”

PI3K β (p110β/p85α)(h) = PI3K β (p110β/p85α)(h) (Homo sapiens, UniProt P42338); assay: Assay for phosphatidylinositol 3-kinase beta (PI3Kβ) activity, PI3K-HTRF kit; details: TR-FRET; enzyme 0.725 μg/ml, 10 μM PIP2, 10 μM ATP
Experimental: [The source words this procedure for another target and says it was used here with some conditions changed.] as §1, §2
as §3, with “2> […]” for “2>”

PI3Kα (p110α/p85α)(h) = PI3Kα (p110α/p85α)(h) (Homo sapiens, UniProt P42336); assay: Assay for phosphatidylinositol 3-kinase alpha (PI3Kα) activity, PI3K-HTRF kit; details: TR-FRET; enzyme 0.3625 μg/ml, 10 μM PIP2, 10 μM ATP
Experimental: [The source words this procedure for another target and says it was used here with some conditions changed.] as §1, §2, §3

Chain of PI3Kδ (p110δ/p85α)(h) (O00329 whole entry): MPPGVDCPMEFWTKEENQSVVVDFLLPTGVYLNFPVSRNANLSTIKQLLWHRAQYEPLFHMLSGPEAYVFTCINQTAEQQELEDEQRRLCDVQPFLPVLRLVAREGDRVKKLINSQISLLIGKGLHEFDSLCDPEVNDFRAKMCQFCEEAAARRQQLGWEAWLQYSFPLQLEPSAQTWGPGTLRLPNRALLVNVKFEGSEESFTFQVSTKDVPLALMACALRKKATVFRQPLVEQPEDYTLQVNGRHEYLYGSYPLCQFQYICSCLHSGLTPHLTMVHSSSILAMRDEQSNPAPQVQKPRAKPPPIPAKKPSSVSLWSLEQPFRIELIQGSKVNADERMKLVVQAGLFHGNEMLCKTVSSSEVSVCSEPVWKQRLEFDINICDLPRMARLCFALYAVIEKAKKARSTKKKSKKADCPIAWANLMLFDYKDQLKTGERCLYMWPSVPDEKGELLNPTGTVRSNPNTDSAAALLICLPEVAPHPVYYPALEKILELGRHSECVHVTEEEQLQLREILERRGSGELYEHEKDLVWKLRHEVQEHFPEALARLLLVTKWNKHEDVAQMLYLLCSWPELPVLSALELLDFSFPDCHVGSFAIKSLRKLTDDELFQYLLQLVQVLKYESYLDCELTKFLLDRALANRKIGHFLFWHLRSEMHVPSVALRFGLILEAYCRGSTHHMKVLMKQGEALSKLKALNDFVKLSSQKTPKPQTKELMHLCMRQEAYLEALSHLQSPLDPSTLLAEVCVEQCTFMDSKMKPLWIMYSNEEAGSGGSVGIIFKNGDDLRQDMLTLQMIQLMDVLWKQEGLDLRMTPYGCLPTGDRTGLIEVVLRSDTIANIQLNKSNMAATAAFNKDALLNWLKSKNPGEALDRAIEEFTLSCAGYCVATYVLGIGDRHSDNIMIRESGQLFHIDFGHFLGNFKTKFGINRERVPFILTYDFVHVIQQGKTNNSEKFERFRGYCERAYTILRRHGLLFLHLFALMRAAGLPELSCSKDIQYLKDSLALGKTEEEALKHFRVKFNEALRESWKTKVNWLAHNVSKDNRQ
Chain of PI3Kδ (p110δ/p85α)(h) (P27986 whole entry partner): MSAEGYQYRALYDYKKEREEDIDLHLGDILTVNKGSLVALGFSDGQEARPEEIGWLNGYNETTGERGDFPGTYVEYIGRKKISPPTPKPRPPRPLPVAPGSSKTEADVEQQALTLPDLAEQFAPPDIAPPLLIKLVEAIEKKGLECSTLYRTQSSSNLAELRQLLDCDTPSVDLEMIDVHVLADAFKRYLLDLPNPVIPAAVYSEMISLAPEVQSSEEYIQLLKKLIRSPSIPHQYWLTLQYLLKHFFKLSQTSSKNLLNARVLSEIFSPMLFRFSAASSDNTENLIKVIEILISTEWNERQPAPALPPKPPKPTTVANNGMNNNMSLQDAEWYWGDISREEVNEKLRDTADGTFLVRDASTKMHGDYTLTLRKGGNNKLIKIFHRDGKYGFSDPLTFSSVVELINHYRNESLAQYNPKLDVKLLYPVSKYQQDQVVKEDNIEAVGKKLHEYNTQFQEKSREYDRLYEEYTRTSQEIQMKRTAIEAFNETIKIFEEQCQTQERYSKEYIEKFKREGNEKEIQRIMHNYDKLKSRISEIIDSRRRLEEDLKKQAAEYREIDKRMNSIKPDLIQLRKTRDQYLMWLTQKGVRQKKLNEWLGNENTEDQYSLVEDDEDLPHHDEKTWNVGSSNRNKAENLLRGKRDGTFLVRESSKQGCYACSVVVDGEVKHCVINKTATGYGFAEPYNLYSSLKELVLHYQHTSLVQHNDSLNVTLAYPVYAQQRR
Chain of PI3K β (p110β/p85α)(h) (P42338 whole entry): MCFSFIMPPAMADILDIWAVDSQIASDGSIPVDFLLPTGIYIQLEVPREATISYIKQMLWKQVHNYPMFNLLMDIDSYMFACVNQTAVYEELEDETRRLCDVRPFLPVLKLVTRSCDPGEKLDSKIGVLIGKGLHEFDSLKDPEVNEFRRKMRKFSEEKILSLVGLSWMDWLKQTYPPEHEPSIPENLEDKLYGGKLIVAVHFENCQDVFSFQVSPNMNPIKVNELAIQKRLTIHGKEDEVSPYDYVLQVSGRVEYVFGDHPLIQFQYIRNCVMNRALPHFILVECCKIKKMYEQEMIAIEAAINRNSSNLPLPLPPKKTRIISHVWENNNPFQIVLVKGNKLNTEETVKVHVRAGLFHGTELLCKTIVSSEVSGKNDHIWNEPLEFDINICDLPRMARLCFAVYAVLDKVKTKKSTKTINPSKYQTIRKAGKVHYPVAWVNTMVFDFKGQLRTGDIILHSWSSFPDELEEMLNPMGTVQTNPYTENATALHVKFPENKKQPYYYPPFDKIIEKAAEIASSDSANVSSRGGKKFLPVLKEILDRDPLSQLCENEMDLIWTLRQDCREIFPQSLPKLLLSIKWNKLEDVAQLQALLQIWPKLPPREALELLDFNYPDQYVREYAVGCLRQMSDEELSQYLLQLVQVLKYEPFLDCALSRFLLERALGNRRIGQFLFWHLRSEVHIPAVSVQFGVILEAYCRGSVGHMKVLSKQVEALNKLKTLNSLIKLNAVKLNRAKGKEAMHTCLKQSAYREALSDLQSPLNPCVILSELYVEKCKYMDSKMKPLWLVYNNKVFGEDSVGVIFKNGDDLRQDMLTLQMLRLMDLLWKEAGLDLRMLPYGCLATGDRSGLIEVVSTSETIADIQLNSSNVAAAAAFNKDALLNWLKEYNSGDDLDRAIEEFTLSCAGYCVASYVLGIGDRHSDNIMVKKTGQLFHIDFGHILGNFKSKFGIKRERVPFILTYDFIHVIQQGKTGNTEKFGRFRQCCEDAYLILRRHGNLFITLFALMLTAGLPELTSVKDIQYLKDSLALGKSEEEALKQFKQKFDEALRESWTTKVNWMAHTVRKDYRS
Chain of PI3K β (p110β/p85α)(h) (P27986 whole entry partner): as the sequence (P27986 whole entry partner) above
Chain of PI3Kα (p110α/p85α)(h) (P42336 whole entry): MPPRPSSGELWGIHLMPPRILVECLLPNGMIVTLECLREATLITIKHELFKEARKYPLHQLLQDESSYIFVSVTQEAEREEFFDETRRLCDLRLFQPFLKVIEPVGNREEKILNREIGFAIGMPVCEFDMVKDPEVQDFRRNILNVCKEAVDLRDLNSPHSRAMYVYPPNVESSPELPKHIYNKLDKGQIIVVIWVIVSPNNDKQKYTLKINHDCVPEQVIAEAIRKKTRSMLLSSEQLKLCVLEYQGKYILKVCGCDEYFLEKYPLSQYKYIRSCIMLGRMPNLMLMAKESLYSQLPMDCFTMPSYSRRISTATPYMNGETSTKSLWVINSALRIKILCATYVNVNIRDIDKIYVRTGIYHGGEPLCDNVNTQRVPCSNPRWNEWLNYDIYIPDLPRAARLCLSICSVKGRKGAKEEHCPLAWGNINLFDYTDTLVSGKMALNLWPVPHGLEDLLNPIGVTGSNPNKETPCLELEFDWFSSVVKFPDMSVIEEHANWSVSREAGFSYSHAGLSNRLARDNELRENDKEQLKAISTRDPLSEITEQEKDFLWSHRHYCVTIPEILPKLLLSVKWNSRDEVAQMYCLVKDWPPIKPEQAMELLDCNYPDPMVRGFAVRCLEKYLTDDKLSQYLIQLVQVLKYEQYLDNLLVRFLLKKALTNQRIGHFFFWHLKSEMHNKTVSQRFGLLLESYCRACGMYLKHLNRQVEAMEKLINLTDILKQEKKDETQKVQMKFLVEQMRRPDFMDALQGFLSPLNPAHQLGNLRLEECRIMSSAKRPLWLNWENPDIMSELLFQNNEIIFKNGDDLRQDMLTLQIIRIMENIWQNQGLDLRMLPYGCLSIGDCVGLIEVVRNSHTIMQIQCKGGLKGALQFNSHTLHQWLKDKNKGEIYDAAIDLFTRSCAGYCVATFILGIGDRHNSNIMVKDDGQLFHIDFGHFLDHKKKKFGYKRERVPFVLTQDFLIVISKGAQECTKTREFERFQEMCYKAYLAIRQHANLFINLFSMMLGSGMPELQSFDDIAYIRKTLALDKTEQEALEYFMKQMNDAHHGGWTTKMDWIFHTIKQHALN
Chain of PI3Kα (p110α/p85α)(h) (P27986 whole entry partner): as the sequence (P27986 whole entry partner) above
Chain of PI3Kγ (p120γ)(h) (P48736 whole entry): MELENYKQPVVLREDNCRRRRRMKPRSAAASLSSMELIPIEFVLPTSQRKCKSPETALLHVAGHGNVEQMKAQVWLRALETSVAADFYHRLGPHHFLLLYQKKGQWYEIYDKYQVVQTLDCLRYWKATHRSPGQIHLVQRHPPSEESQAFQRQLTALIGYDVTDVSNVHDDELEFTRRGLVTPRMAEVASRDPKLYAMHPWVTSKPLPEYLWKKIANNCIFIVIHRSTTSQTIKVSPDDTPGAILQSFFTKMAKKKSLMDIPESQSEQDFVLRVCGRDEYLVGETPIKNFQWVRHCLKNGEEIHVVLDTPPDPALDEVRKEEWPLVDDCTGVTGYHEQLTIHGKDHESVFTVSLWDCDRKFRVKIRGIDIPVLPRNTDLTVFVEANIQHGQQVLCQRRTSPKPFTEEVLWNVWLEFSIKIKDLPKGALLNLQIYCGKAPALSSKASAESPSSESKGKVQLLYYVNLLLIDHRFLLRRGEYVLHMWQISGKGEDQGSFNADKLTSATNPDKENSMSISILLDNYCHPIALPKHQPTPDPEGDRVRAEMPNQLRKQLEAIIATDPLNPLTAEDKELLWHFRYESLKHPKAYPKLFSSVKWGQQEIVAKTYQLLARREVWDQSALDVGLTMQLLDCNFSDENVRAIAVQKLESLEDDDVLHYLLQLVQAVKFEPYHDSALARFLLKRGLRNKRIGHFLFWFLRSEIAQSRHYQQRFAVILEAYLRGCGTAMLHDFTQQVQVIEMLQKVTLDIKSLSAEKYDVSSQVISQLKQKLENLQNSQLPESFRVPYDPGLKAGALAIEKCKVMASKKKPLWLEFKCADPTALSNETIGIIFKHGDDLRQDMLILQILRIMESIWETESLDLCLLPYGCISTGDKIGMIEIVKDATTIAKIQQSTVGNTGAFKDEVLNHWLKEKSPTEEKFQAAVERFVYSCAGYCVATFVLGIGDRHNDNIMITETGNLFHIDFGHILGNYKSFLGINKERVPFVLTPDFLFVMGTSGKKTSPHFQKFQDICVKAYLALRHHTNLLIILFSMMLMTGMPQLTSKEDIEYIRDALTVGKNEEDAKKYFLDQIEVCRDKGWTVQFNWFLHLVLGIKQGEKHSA

Row | Molecule | IC50 (PI3Kγ (p120γ)(h)) | IC50 (PI3Kδ (p110δ/p85α)(h)) | IC50 (PI3K β (p110β/p85α)(h)) | IC50 (PI3Kα (p110α/p85α)(h))
1 | COc1ccccc1NC(=O)c1cncc2cc(/C=C3\SC(=O)NC3=O)oc12 [Example 412, (Z)-2-{(2,4-Dioxothiazolidin-5-ylidene)methyl}-N-(2-methoxyphenyl)furo[3,2-c]pyridine-7-carboxamide] | 182 nM | 205 nM | 869 nM | 17 nM
2 | O=C1NC(=O)/C(=C/c2cc3cncc(C#Cc4ccsc4)c3o2)S1 [Example 528, (Z)-5-[{7-(Thiophen-3-ylethynyl)furo[3,2-c]pyridin-2-yl}methylene]thiazolidine-2,4-dione] | 24 nM | 92 nM | 638 nM | 8 nM
3 | O=C1NC(=S)S/C1=C\c1cc2cncc(-c3ccc(F)nc3)c2o1 [Example 153, (Z)-5-[{7-(6-Fluoropyridin-3-yl)furo[3,2-c]pyridin-2-yl}methylene]-2-thioxothiazolidin-4-one] | 16 nM | 246 nM | 115 nM | 10 nM
4 | CSc1ccc(-c2cncc3cc(/C=C4\SC(=O)NC4=O)oc23)cc1 [Example 23, (Z)-5-([7-{4-(Methylthio)phenyl}furo[3,2-c]pyridin-2-yl]methylene)thiazolidine-2,4-dione] | 9 nM | > 10000 nM | > 10000 nM | 43 nM
5 | O=C1NC(=S)S/C1=C\c1cc2cncc(C#Cc3ccsc3)c2o1 [Example 555, (Z)-5-[{7-(Thiophen-3-ylethynyl)furo[3,2-c]pyridin-2-yl}methylene]-2-thioxothiazolidin-4-one] | 18 nM | 120 nM | 3470 nM | 5 nM
6 | Cc1ccccc1C#Cc1cncc2cc(/C=C3\SC(=O)NC3=O)oc12 [Example 454, (Z)-5-[{7-(o-Tolylethynyl)furo[3,2-c]pyridin-2-yl}methylene]thiazolidine-2,4-dione] | 7 nM | 143 nM | 466 nM | 1 nM
7 | COc1ccc(-c2cncc3cc(/C=C4\SC(=O)NC4=O)oc23)cc1 [Example 25, (Z)-5-[{7-(4-Methoxyphenyl)furo[3,2-c]pyridin-2-yl}methylene]thiazolidine-2,4-dione] | 5 nM | > 10000 nM | > 10000 nM | 6 nM
8 | N#Cc1ccc(C#Cc2cncc3cc(/C=C4\SC(=S)NC4=O)oc23)cc1 [Example 548, (Z)-4-([2-{(4-Oxo-2-thioxothiazolidin-5-ylidene)methyl}furo[3,2-c]pyridin-7-yl]ethynyl)benzonitrile] | 25 nM | 250 nM | 138 nM | 8 nM
9 | O=C1NC(=O)/C(=C/c2cc3cncc(C#Cc4ccc(Cl)cc4)c3o2)S1 [Example 541, (Z)-5-([7-{(4-Chlorophenyl)ethynyl}furo[3,2-c]pyridin-2-yl]methylene)thiazolidine-2,4-dione] | 27 nM | 136 nM | 104 nM | 5 nM
10 | CS(=O)(=O)c1ccc(-c2cncc3cc(/C=C4\SC(=O)NC4=O)oc23)cc1 [Example 40, (Z)-5-([7-{4-(Methylsulfonyl)phenyl}furo[3,2-c]pyridin-2-yl]methylene)thiazolidine-2,4-dione] | 28 nM | 590 nM | 177 nM | 8 nM
11 | CCOc1ccc(-c2cncc3cc(/C=C4\SC(=O)NC4=O)oc23)cc1Cl [Example 51, (Z)-5-[{7-(3-Chloro-4-ethoxyphenyl)furo[3,2-c]pyridin-2-yl}methylene]thiazolidine-2,4-dione] | 12 nM | > 10000 nM | > 10000 nM | 5 nM
12 | COc1ccccc1C#Cc1cncc2cc(/C=C3\SC(=S)NC3=O)oc12 [Example 486, (Z)-5-([7-{(2-Methoxyphenyl)ethynyl}furo[3,2-c]pyridin-2-yl]methylene)-2-thioxothiazolidin-4-one] | 14 nM | > 10000 nM | > 10000 nM | 4 nM
13 | 5-[{7-(p-Tolylethynyl)furo[3,2-c]pyridin-2-yl}methyl]thiazolidine-2,4-dione [Example 520] | 11 nM | > 10000 nM | 9740 nM | 15 nM
14 | O=C1NC(=S)S/C1=C\c1cc2cncc(-c3ccc4c(c3)CCO4)c2o1 [Example 187, (Z)-5-[{7-(2,3-Dihydrobenzofuran-5-yl)furo[3,2-c]pyridin-2-yl}methylene]-2-thioxothiazolidin-4-one] | 10 nM | > 10000 nM | > 10000 nM | 5 nM
15 | COC(=O)c1cc(F)cc(-c2cncc3cc(/C=C4\SC(=S)NC4=O)oc23)c1 [Example 351, (Z)-Methyl 3-fluoro-5-[2-{(4-oxo-2-thioxothiazolidin-5-ylidene)methyl}furo[3,2-c]pyridin-7-yl]benzoate] | 9 nM | > 10000 nM | > 10000 nM | 4 nM
16 | 2-Thioxo-5-[{7-(m-tolylethynyl)furo[3,2-c]pyridin-2-yl}methyl]thiazolidin-4-one [Example 546] | 3 nM | > 10000 nM | 5500 nM | 360 nM
